Data reported in PubChem BioAssay (NCI).
Several values for one entry are separate records, joined by “and”; a condition that tells them apart may be missing. Equal entries are not always repeated.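 The compound was tested at five concentrations on cells cultured in 96-well plates, with a 48-hour exposure period. GI50 is the concentration that inhibits growth by half. TGI denotes the concentration required for complete inhibition of growth.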

Key:
Test in all cases: inhibition of tumour cell growth, NCI panel, 48 h
[1] = tested on: HOP-62 NSCLC
[2] = tested on: SN12C renal
[3] = tested on: NCI-H522 lung
[4] = tested on: SNB-75 CNS
[5] = tested on: COLO 205 colon
[6] = tested on: DU-145 prostate
[7] = tested on: NCI-H23 lung
[8] = tested on: HL-60(TB) leukemia
[9] = tested on: SR leukemia
[10] = tested on: U251 CNS
[11] = tested on: SW-620 colon
[12] = tested on: LOX IMVI melanoma
[13] = tested on: TK-10 renal
[14] = tested on: NCI/ADR-RES ovarian
[15] = tested on: MDA-MB-231 breast
[16] = tested on: HT29 colon
[17] = tested on: ACHN renal
[18] = tested on: NCI-H460 lung
[19] = tested on: SK-MEL-28 melanoma
[20] = tested on: MDA-N
[21] = tested on: A549 NSCLC
[22] = tested on: OVCAR-4 ovarian
[23] = tested on: HS 578T breast
[24] = tested on: UACC-257 melanoma
[25] = tested on: HOP-92 NSCLC
[26] = tested on: EKVX NSCLC
[27] = tested on: SK-OV-3 ovarian
[28] = tested on: NCI-H226 lung
[29] = tested on: OVCAR-5 ovarian
[30] = tested on: SF-295 CNS
[31] = tested on: RXF 393 renal
[32] = tested on: HCC-2998 colon
[33] = tested on: T-47D breast
[34] = tested on: MCF7 breast
[35] = tested on: MOLT-4 leukemia
[36] = tested on: PC-3 prostate
[37] = tested on: MDA-MB-435
[38] = tested on: HCT-15 colon
[39] = tested on: CCRF-CEM leukemia
[40] = tested on: UO-31 renal
[41] = tested on: 786-0 renal
[42] = tested on: IGROV1 ovarian
[43] = tested on: UACC-62 melanoma
[44] = tested on: BT-549 breast
[45] = tested on: A498 renal
[46] = tested on: KM12 colon
[47] = tested on: SF-268 CNS
[48] = tested on: SF-539 CNS
[49] = tested on: M14 melanoma
[50] = tested on: SNB-19 CNS
[51] = tested on: CAKI-1 renal
[52] = tested on: SK-MEL-2 melanoma
[53] = tested on: OVCAR-8 ovarian
[54] = tested on: SK-MEL-5 melanoma
[55] = tested on: OVCAR-3 ovarian
[56] = tested on: HCT-116 colon
[57] = tested on: MALME-3M melanoma
[58] = tested on: RPMI-8226 leukemia
[59] = tested on: K-562 leukemia

CCN1C/C(=C\c2cc(OC)c(OC)c(OC)c2)C2=NN(c3ccccc3)C(c3cc(OC)c(OC)c(OC)c3)C2C1 (stereo not drawn)
TGI [1]: 2.51 µM
TGI [2]: 11.3 µM
TGI [3]: 3.06 µM
TGI [4]: 1.32 µM
TGI [5]: 7.13 µM
TGI [6]: 23.6 µM
TGI [7]: 19.2 µM
TGI [8]: > 23.8 µM
TGI [9]: 65.5 µM
TGI [10]: 1.85 µM
TGI [11]: > 100 µM
TGI [12]: 10.6 µM
TGI [13]: 6.14 µM
TGI [14]: 7.4 µM
TGI [15]: 1.54 µM
TGI [16]: 6.8 µM
TGI [17]: > 36 µM
TGI [18]: 2.24 µM
TGI [19]: 2 µM
TGI [20]: 10.8 µM
TGI [21]: 4.9 µM
TGI [22]: 24.6 µM
TGI [23]: 1.32 µM
TGI [24]: 12.7 µM
TGI [25]: 13.5 µM
TGI [26]: 11.4 µM
TGI [27]: 6.38 µM
TGI [28]: 11.1 µM
TGI [29]: 12.3 µM
TGI [30]: 18.5 µM
TGI [31]: 2.2 µM
TGI [32]: 2.25 µM
TGI [33]: 18 µM
TGI [34]: > 38.1 µM
TGI [35]: > 19.8 µM
TGI [36]: 2.46 µM
TGI [37]: 6.51 µM
TGI [38]: 25.7 µM
TGI [39]: 8.3 µM
TGI [40]: 6.68 µM
TGI [41]: 1.48 µM
TGI [42]: 21.3 µM
TGI [43]: > 54.2 µM
TGI [44]: 22 µM
TGI [45]: 43.6 µM
TGI [46]: > 36 µM
TGI [47]: 1.58 µM
TGI [48]: 1.91 µM
TGI [49]: 6.48 µM
TGI [50]: 6 µM
TGI [51]: 3.85 µM
TGI [52]: 31.9 µM
TGI [53]: 4.72 µM
TGI [54]: 15.5 µM
TGI [55]: > 25.1 µM
TGI [56]: 5.77 µM
TGI [57]: 1.64 µM

COc1ccc2c(c1OC)CN1CCc3cc4c(cc3C1C2)OCO4 (stereo not drawn)
TGI [1]: > 100 µM
TGI [2]: > 100 µM
TGI [3]: > 100 µM
TGI [4]: > 100 µM
TGI [58]: > 100 µM
TGI [5]: > 100 µM
TGI [6]: > 100 µM
TGI [7]: > 100 µM
TGI [8]: > 100 µM
TGI [9]: > 100 µM
TGI [10]: > 100 µM
TGI [11]: > 100 µM
TGI [12]: > 100 µM
TGI [13]: > 100 µM
TGI [14]: > 100 µM
TGI [15]: > 100 µM
GI50 [16]: 30.8 µM and 76.1 µM
TGI [16]: > 100 µM
TGI [17]: > 100 µM
TGI [18]: > 100 µM
TGI [19]: > 100 µM
TGI [20]: > 100 µM
TGI [21]: > 100 µM
TGI [22]: > 100 µM
TGI [23]: > 100 µM
TGI [24]: > 100 µM
TGI [25]: > 100 µM
TGI [26]: > 100 µM
TGI [27]: > 100 µM
TGI [28]: > 100 µM
TGI [29]: > 100 µM
TGI [30]: > 100 µM
TGI [32]: > 100 µM
TGI [33]: > 100 µM
TGI [34]: > 100 µM
TGI [35]: > 100 µM
TGI [36]: > 100 µM
TGI [37]: > 100 µM
TGI [38]: > 100 µM
GI50 [39]: > 100 µM
TGI [39]: > 100 µM
TGI [40]: > 100 µM
TGI [41]: > 100 µM
TGI [42]: > 100 µM
TGI [43]: > 100 µM
TGI [44]: > 100 µM
TGI [45]: > 100 µM
TGI [46]: > 100 µM
TGI [47]: > 100 µM
TGI [59]: > 100 µM
TGI [48]: > 100 µM
TGI [49]: > 100 µM
TGI [50]: > 100 µM
TGI [51]: > 100 µM
TGI [52]: > 100 µM
TGI [53]: > 100 µM
TGI [54]: > 100 µM
TGI [55]: > 100 µM
TGI [56]: > 100 µM
TGI [57]: > 100 µM

CNC(=O)CCC(NC(=O)OC(C)(C)C)C(=O)NC(Cc1ccc(NC(=O)CCCCC(C)=O)cc1)C(=O)NCC(=O)NC (stereo not drawn)
TGI [1]: > 100 µM
TGI [2]: > 100 µM
TGI [3]: > 100 µM
TGI [4]: > 100 µM
TGI [58]: > 100 µM
TGI [5]: > 100 µM
TGI [6]: > 100 µM
TGI [7]: > 100 µM
TGI [8]: > 100 µM
TGI [9]: > 100 µM
TGI [10]: > 100 µM
TGI [11]: > 100 µM
TGI [12]: > 100 µM
TGI [13]: > 100 µM
TGI [14]: > 100 µM
TGI [15]: > 100 µM
TGI [16]: > 100 µM
TGI [17]: > 100 µM
TGI [18]: > 100 µM
TGI [19]: > 100 µM
TGI [20]: > 100 µM
TGI [21]: > 100 µM
TGI [22]: > 100 µM
TGI [23]: > 100 µM
TGI [25]: > 100 µM
TGI [26]: > 100 µM
TGI [27]: > 100 µM
TGI [28]: > 100 µM
TGI [29]: > 100 µM
TGI [30]: > 100 µM
TGI [31]: > 100 µM
TGI [32]: > 100 µM
TGI [33]: > 100 µM
TGI [34]: > 100 µM
TGI [35]: > 100 µM
TGI [36]: > 100 µM
TGI [37]: > 100 µM
TGI [38]: > 100 µM
TGI [40]: > 100 µM
TGI [41]: > 100 µM
TGI [42]: > 100 µM
TGI [43]: > 100 µM
TGI [44]: > 100 µM
TGI [45]: > 100 µM
TGI [46]: > 100 µM
TGI [47]: > 100 µM
TGI [59]: > 100 µM
TGI [48]: > 100 µM
TGI [49]: > 100 µM
TGI [50]: > 100 µM
TGI [51]: > 100 µM
TGI [53]: > 100 µM
TGI [54]: > 100 µM
TGI [55]: > 100 µM
TGI [56]: > 100 µM
TGI [57]: > 100 µM
